Measured values reported in US20260109732A1, “LIPID AMINES” (ModernaTX, Inc., priority 2021, published 2026).
Where a name gives a salt, the structure may show the parent alone.

Tests used:
[1] = Encapsulation of mRNA nanoparticles with lipid amines using Ribogreen assay; type: physicochemical
In short: (§1)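 DLS gave size and PDI, and Ribogreen gave encapsulation, for luciferase- or CFTR-mRNA nanoparticles (N:P 4.93). Particles came from IL1/DSPC/cholesterol/PEG-DMG-2K mixed at pH 4, mRNA-loaded, neutralized with TRIS pH 8.12, and then treated with lipid amine SA50 in pH 7.5 buffer.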

[2] = Diameter and PDI from DLS measurements of mRNA nanoparticles with lipid amines; type: physicochemical
In short: as §1

HeLa cells [3] = experiment: Luciferase Protein Expression Assay in HeLa Cells; type: cell-based, Human; settings: LNPs encapsulating Luciferase mRNA, 25 ng per well, N=4 wells; 5 h serum-free then 24 h; ONE-Glo
Experimental: For HeLa studies evaluating luciferase protein expression, PEG-DMG-2K dissolved in a 20 mM TRIS buffer (pH 7.5) is added to the neutralized intermediate nanoparticle solution at a ratio of 1:6, bringing the solution to the final molar ratios of IL1:DSPC:cholesterol:PEG-DMG-2K of 48.5:11.1:38.9:1.5%. This nanoparticle formulation is then modified with lipid amines. In a typical example, nanoparticle formulation at a concentration of 0.18 mg/mL mRNA and a 0.56 mL volume is modified with lipid amine SA50 (467.2 nmol) prepared in buffer containing 20 mM TRIS, 14.3 mM sodium acetate, 32 g/L sucrose and 140 mM NaCl-pH 7.5 at a volumetric ratio of 1:1 of nanoparticle:buffer.
Lipid nanoparticle compositions were prepared in a manner analogous to that in example 2. To evaluate LNP cellular uptake and protein expression In Vitro, HeLa cells from ATCC.org (ATCC CCL-2) are used. The cells are cultured in complete Minimum Essential Medium (MVEM) and are plated in 96 well Cell Carrier Ultra plate with PDL coated surface (PerkinElmer) prior to running an experiment.
Cells were transfected with buffer control (PBS) or LNPs encapsulating Luciferase mRNA (25 ng per well; N=4 replicate wells) in serum-free MEM media. LNP transfected cells were incubated for 5 h, followed by media removal and supplementation with complete MEM media. Cells were further incubated in complete MEM media overnight (24 h). Following the 24 hr incubation, luciferase protein expression was measured using the ONE-Glo™ Luciferase Assay (Promega). Cells were lysed using 1× Passive Lysis Buffer (Cat. #E194A) for 10 min in a microplate mixer at room temperature. Luciferase in the supernatant was measured by adding Luciferase Assay Reagent (Cat. #E151A) containing luciferin. Bioluminescence was then immediately measured on a Synergy H1 plate reader (BioTek). The results shown in Table 3a show the Average Relative Light Units (RLU) of each sample tested.

HeLa cells [4] = experiment: CFTR Protein Expression Assay in HeLa Cells; type: cell-based, Human; settings: LNPs encapsulating CFTR mRNA, N=4 wells; 5 h serum-free then 24 h; immunofluorescence vs PBS control
In short: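 Readout is fold-change in per-cell CFTR immunofluorescence intensity (488 nm, confocal imaging) relative to PBS-treated cells, from 4 replicate wells. LNPs encapsulating CFTR mRNA were applied serum-free for 5 h, followed by 24 h in complete medium before PFA fixation.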

[5] = CFTR mRNA nanoparticle with lipid amine
[6] = Luciferase mRNA nanoparticle modified with lipid amine

Structure (SMILES) | % Encapsulation (Ribogreen) [1, 5] [%] | % Encapsulation (Ribogreen) [1, 6] [%] | Diameter (nm) [2, 5] [nm] | PDI [2, 5] | Diameter (nm) [2, 6] [nm] | PDI [2, 6] | Average Relative Light Units ± Standard Deviation (HeLa cells [3]) [Relative Light Units] | Average fold-change in CFTR signal intensity per cell compared to buffer control ± standard deviation (HeLa cells [4]) [fold-change]
CC(C)CCC[C@@H](C)[C@H]1CC[C@H]2[C@@H]3CC=C4C[C@@H](OC(=O)CCC(=O)N(CCCN)CCCCCCCCN)CC[C@]4(C)[C@H]3CC[C@]12C [SA72, (3S,8S,9S,10R,13R,14S,17R)-10,13-Dimethyl-17-((R)-6-methylheptan-2-yl)-2,3,4,7,8,9,10,11,12,13,14,15,16,17-tetradecahydro-1H-cyclopenta[a]phenanthren-3-yl 4-((8-aminooctyl)(3-aminopropyl)amino)-4-oxobutanoate dihydrochloride] | 99.8 | 99.1 | 73.0 | 0.11 | 72 | 0.11 | 30826.5 ± 5913.2 | 6.6 ± 0.6
CC(C)CCC[C@@H](C)[C@H]1CC[C@H]2[C@@H]3CC=C4C[C@@H](OC(=O)N(CCCCNCC(C)CN)CC(C)CN)CC[C@]4(C)[C@H]3CC[C@]12C (stereo partly drawn) [SA75, (3S,8S,9S,10R,13R,14S,17R)-10,13-dimethyl-17-((R)-6-methylheptan-2-yl)-2,3,4,7,8,9,10,11,12,13,14,15,16,17-tetradecahydro-1H-cyclopenta[a]phenanthren-3-yl (3-amino-2-methylpropyl)(4-((3-amino-2-methylpropyl)amino)butyl)carbamate trihydrochloride] | 100 | 98.8 | 86.9 | 0.11 | 74 | 0.16 | 37732.4 ± 6382.7 | 11.9 ± 0.6
CC(C)CCC[C@@H](C)[C@H]1CC[C@H]2[C@@H]3CC=C4C[C@@H](OC(=O)N(CCCCNCCC(C)N)CCC(C)N)CC[C@]4(C)[C@H]3CC[C@]12C (stereo partly drawn) [SA76, (3S,8S,9S,10R,13R,14S,17R)-10,13-dimethyl-17-((R)-6-methylheptan-2-yl)-2,3,4,7,8,9,10,11,12,13,14,15,16,17-tetradecahydro-1H-cyclopenta[a]phenanthren-3-yl (3-aminobutyl)(4-((3-aminobutyl)amino)butyl)carbamate trihydrochloride] | 100 | 98.1 | 83.9 | 0.11 | 75 | 0.20 | 38232.8 ± 4603.5 | 12.0 ± 1.1
CC(C)CCC[C@@H](C)[C@H]1CC[C@H]2[C@@H]3CC=C4C[C@@H](OC(=O)N(CCCCNCC(C)(C)CN)CC(C)(C)CN)CC[C@]4(C)[C@H]3CC[C@]12C [SA77, (3S,8S,9S,10R,13R,14S,17R)-10,13-dimethyl-17-((R)-6-methylheptan-2-yl)-2,3,4,7,8,9,10,11,12,13,14,15,16,17-tetradecahydro-1H-cyclopenta[a]phenanthren-3-yl (3-amino-2,2-dimethylpropyl)(4-((3-amino-2,2-dimethylpropyl)amino)butyl)carbamate trihydrochloride] | 100 | 98.2 | 83.9 | 0.13 | 74 | 0.20 | 39191.9 ± 4319 | 12.2 ± 1.3
CC(C)CCC[C@@H](C)[C@H]1CC[C@H]2[C@@H]3CC=C4C[C@@H](OC(=O)N(CCCCNCCC(C)(C)N)CCC(C)(C)N)CC[C@]4(C)[C@H]3CC[C@]12C [SA78, (3S,8S,9S,10R,13R,14S,17R)-10,13-dimethyl-17-((R)-6-methylheptan-2-yl)-2,3,4,7,8,9,10,11,12,13,14,15,16,17-tetradecahydro-1H-cyclopenta[a]phenanthren-3-yl (3-amino-3-methylbutyl)(4-((3-amino-3-methylbutyl)amino)butyl)carbamate trihydrochloride] | 100 | 99.8 | 87.7 | 0.17 | 76 | 0.20 | 14341.8 ± 3497.6 | 11.3 ± 0.7
CC(C)CCC[C@@H](C)[C@H]1CC[C@H]2[C@@H]3CC=C4C[C@@H](OC(=O)N(CCCCNCC(F)(F)CN)CC(F)(F)CN)CC[C@]4(C)[C@H]3CC[C@]12C [SA79, (3S,8S,9S,10R,13R,14S,17R)-10,13-dimethyl-17-((R)-6-methylheptan-2-yl)-2,3,4,7,8,9,10,11,12,13,14,15,16,17-tetradecahydro-1H-cyclopenta[a]phenanthren-3-yl (3-amino-2,2-difluoropropyl)(4-((3-amino-2,2-difluoropropyl)amino)butyl)carbamate trihydrochloride] | 97.9 | 97.0 | 78.4 | 0.13 | 74 | 0.18 | 105.1 ± 20 | 0.8 ± 0
CC(C)CCC[C@@H](C)[C@H]1CC[C@H]2[C@@H]3CC=C4C[C@@H](OC(=O)N(CCCCCCN)CCCCCCN)CC[C@]4(C)[C@H]3CC[C@]12C [SA81, (3S,8S,9S,10R,13R,14S,17R)-10,13-Dimethyl-17-((R)-6-methylheptan-2-yl)-2,3,4,7,8,9,10,11,12,13,14,15,16,17-tetradecahydro-1H-cyclopenta[a]phenanthren-3-yl bis(6-aminohexyl)carbamate dihydrochloride] | 99.4 | 99.8 | 87.6 | 0.18 | 72 | 0.12 | 19619.8 ± 4362.6 | 4.4 ± 0.3
CC[C@H](CC[C@@H](C)[C@H]1CC[C@H]2[C@@H]3CC=C4C[C@@H](OC(=O)N(CCCCCCN)CCCCCCN)CC[C@]4(C)[C@H]3CC[C@]12C)C(C)C [SA82, (3S,8S,9S,10R,13R,14S,17R)-17-((2R,5R)-5-Ethyl-6-methylheptan-2-yl)-10,13-dimethyl-2,3,4,7,8,9,10,11,12,13,14,15,16,17-tetradecahydro-1H-cyclopenta[a]phenanthren-3-yl bis(6-aminohexyl)carbamate dihydrochloride] | 99.4 | 99.1 | 80.7 | 0.13 | 73 | 0.11 | 33396.2 ± 4902.7 | 4.6 ± 0.2
CC(C)CCC[C@@H](C)[C@H]1CC[C@H]2[C@@H]3CC=C4C[C@@H](OC(=O)N(CCCN)CCCCCCN)CC[C@]4(C)[C@H]3CC[C@]12C [SA83, (3S,8S,9S,10R,13R,14S,17R)-10,13-Dimethyl-17-((R)-6-methylheptan-2-yl)-2,3,4,7,8,9,10,11,12,13,14,15,16,17-tetradecahydro-1H-cyclopenta[a]phenanthren-3-yl (6-aminohexyl)(3-aminopropyl)carbamate dihydrochloride] | 99.8 | 99.3 | 82.3 | 0.15 | 75 | 0.14 | 35394.8 ± 5033.2 | 4.8 ± 0.3
